The values that follow come from patent US20240091230A1, “USE OF KRAS G12C INHIBITOR IN TREATING CANCERS” (AMGEN INC., priority 2021, published 2024).

This experiment deals with locally advanced or metastatic KRAS G12C mutant NSCLC. Put plainly: CodeBreaK 100 phase 2 portion, sotorasib monotherapy 960 mg QD (NCT03600883). Format: in vivo, human. As to conditions: among 46 confirmed responders; cutoff Sep. 1, 2020.

SMILES strings stand for the structures.

Procedure: As discussed above, in phase 2 of the CodeBreaK 100 Trial (ClinicalTrials.gov identifier: NCT03600883) subjects with locally advanced or metastatic KRAS G12C mutant NSCLC were treated with the compound of Formula I as monotherapy at 960 mg QD.
• Subject has provided informed consent prior to initiation of any study specific activities/procedures. • Men or women: 18 years of age or older. • Pathologically documented, locally-advanced or metastatic malignancy with KRAS G1 2C 10 mutation identified through molecular testing. For phase 2. the mutation was confirmed by central testing prior to enrollment. • Subjects must have progressed after receiving anti-PD-1 or anti-PD-L1 immunotherapy (unless contraindicated) AND/OR platinum-based combination chemotherapy AND targeted therapy if actionable oncogenic driver mutations were identified (i.e., EGFR, ALK, and ROS1). Subjects must have received no more than 3 prior lines of therapy. The following guidance was used: • Adjuvant therapy was counted as a line of therapy if the subject progressed on or within 6 months of adjuvant therapy administration. • In locally advanced and unresectable NSCLC, disease progression on or within six months of end of prior curatively intended multimodal therapy was counted as a line of therapy.
• Active brain metastases from non-brain tumors.
Samples for biomarker analysis, e.g., to evaluate potential biomarkers that may correlate with treatment response, were collected.
For subjects with NSCLC an archival tumor sample (formalin fixed, paraffin embedded (FFPE) sample, collected within 5 years of enrollment) or pretreatment tumor biopsy (core needle or fine needle aspirates or excisional FFPE sample) was submitted prior to enrollment for central laboratory testing as well as subsequent exploratory biomarker analyses. […]
KRAS G12C mutation testing was conducted using a therascreen® KRAS RGQ PCR Kit (Qiagen). […] The mutations detected are: G12A, G12D, G12R, G12C, G12S, G12V, and G13D.
PD-L1 testing was conducted at the central labs using the Dako PharmDx 22C3 immunohistochemistry FDA-approved kit according to the instructions for use. […] All slides were reviewed and scored by a board-certified pathologist trained to score the PD-L1 IHC 22C3 pharrnDx assay.
STK11, KEAP1 , and TP53 mutation testing was conducted using the Resolution Bioscience Resolution ctDx Lung™ assay that included 24 genes (including those actionable in NSCLC). […] STK11/KEAP1/TP53 co-mutation analysis determined mutational status from baseline tissue and/or plasma samples, and mutations include nonsense, missense, frameshift, or splice site mutations and insertion/deletions predicted to be loss-of-function, and excluded variants of unknown significance. […]

Turning to `C=CC(=O)N1CCN(c2nc(=O)n(-c3c(C)ccnc3C(C)C)c3nc(-c4c(O)cccc4F)c(F)cc23)[C@@H](C)C1` [sotorasib, 6-fluoro-7-(2-fluoro-6-hydroxyphenyl)-(1M)-1-[4-methyl-2-(propan-2-yl)pyridin-3--yl]-4-[(2S)-2-methyl-4-(prop-2-enoyl)piperazin-1-yl]pyrido[2,3-d]pyrimidin-2(1H)-one], the “Duration of response (KM) - 25th percentile” value turned out to be 6.8 months, the “Duration of response (KM) - 75th percentile” value is recorded as 8.4 months, the “Duration of response (KM) - Max (+ for censored)” value came out at 8.4 months and the “Duration of response (KM) - Median” value came to 8.4 months.
